Test results taken from patent publication US20250230193A1, “CYCLIC COMPOUND HAVING SELECTIVE KRAS INHIBITORY EFFECT ON HRAS AND NRAS” (CHUGAI SEIYAKU KABUSHIKI KAISHA, priority 2022, published 2025).

Tests used:
[1] = biological target: GDP-bound NRAS wild-type protein (Homo sapiens, UniProt P01111); test: Binding to NRAS by surface plasmon resonance (SPR), Single Cycle Kinetics; settings: SPR; KD ratio class
[2] = biological target: GDP-bound HRAS wild-type protein (Homo sapiens, UniProt P01112); test: Binding to HRAS by surface plasmon resonance (SPR), Single Cycle Kinetics; settings: SPR; KD ratio class
[3] = test system: human lung cancer strain NCI-H441; test: cells; settings: NCI-H441, 96 h, read-out: NCI-H441 IC50 (nM)

Chain of GDP-bound HRAS wild-type protein (P01112 whole entry): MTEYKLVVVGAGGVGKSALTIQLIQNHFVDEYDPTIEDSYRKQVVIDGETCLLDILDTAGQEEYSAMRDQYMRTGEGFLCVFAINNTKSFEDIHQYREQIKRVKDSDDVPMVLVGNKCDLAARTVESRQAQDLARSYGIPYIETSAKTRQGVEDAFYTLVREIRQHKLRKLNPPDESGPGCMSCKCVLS
Chain of GDP-bound NRAS wild-type protein (P01111 whole entry): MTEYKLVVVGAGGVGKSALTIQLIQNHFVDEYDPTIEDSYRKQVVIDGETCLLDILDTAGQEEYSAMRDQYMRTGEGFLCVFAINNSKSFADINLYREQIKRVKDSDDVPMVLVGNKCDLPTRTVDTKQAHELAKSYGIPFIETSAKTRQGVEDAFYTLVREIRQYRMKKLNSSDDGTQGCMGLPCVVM

Row | Compound | IC50 [3] [nM] | NRAS/KRAS (ratio of KD value for GDP-bound NRAS wild-type protein to KD value for KRAS) [1] | HRAS/KRAS (ratio of KD value for GDP-bound HRAS wild-type protein to KD value for KRAS) [2]
1 | CCO[C@@H]1C[C@H]2C(=O)NC3(CCC3)C(=O)N(C)[C@@H](C3CCCC3)C(=O)N(C)[C@H](C(=O)N(C)C)CC(=O)N(C)[C@@H](CC(C)C)C(=O)N[C@@H]([C@@H](C)CC)C(=O)N(C)CC(=O)N(C)[C@H]3C/C=C\CCN(C3=O)[C@@H](Cc3ccc(F)cc3)C(=O)N(C)CC(=O)N[C@@H](CCc3cc(F)c(Cl)c(F)c3)C(=O)N2C1 [PP1483] | 90.3 | A (a compound having 10 or more and less than 20 is denoted as A) | B (a compound having 3 or more and less than 10 is denoted as B)
2 | CCO[C@@H]1C[C@H]2C(=O)NC3(CC(C)(C)C3)C(=O)N(C)[C@@H](C3CCCC3)C(=O)N(C)[C@H](C(C)C)CC(=O)N(C)[C@@H](CC)C(=O)N[C@@H]([C@@H](C)CC)C(=O)N(C)CC(=O)N(C)[C@H]3C/C=C\CCN(C3=O)[C@@H](CC3CCCCC3)C(=O)N(C)CC(=O)N[C@@H](CCc3cc(F)c(C(F)(F)F)c(F)c3)C(=O)N2C1 [PP1603] | 132 | B (a compound having 3 or more and less than 10 is denoted as B) | B (a compound having 3 or more and less than 10 is denoted as B)
3 | CCO[C@@H]1C[C@H]2C(=O)NC3(CCC3)C(=O)N(C)[C@@H](C3CCCC3)C(=O)N(C)[C@H](C)CC(=O)N(C)[C@@H](CC3CCCC3)C(=O)N[C@@H]([C@@H](C)CC)C(=O)N(C)CC(=O)N(C)[C@H]3C/C=C\CCN(C3=O)[C@@H](Cc3ccc(F)cc3)C(=O)N(C)CC(=O)N[C@@H](CCc3cc(F)c(C(F)(F)F)c(F)c3)C(=O)N2C1 [PP1492] | 129 | B (a compound having 3 or more and less than 10 is denoted as B) | B (a compound having 3 or more and less than 10 is denoted as B)
4 | CC[C@H](C)[C@@H]1NC(=O)[C@H](CC2CC2)N(C)C(=O)C[C@@H](C(=O)N(C)C)N(C)C(=O)[C@H](C2CCCC2)N(C)C(=O)C2(CCC2)NC(=O)[C@H](CC(F)F)N(C)C(=O)[C@H](CCc2cc(F)c(C(F)(F)F)c(F)c2)NC(=O)CN(C)C(=O)[C@H](Cc2ccc(C(F)(F)F)cc2)N2CC/C=C\C[C@@H](C2=O)N(C)C(=O)CN(C)C1=O [PP1403] | 111 | AA (a compound having 20 or more is denoted as AA) | A (a compound having 10 or more and less than 20 is denoted as A)
5 | CCO[C@@H]1C[C@H]2C(=O)NC3(CCC3)C(=O)N(C)[C@@H](C(CC)CC)C(=O)N(C)[C@H](C(=O)N3CCOCC3)CC(=O)N(C)[C@@H](CC3CC3)C(=O)N[C@@H]([C@@H](C)CC)C(=O)N(C)CC(=O)N(C)[C@H]3C/C=C\CCN(C3=O)[C@@H](Cc3ccc(F)cc3C)C(=O)N(C)CC(=O)N[C@@H](CCc3cc(F)c(C(F)(F)F)c(F)c3)C(=O)N2C1 [PP1526] | 118 | A (a compound having 10 or more and less than 20 is denoted as A) | A (a compound having 10 or more and less than 20 is denoted as A)
6 | CC[C@H](C)[C@@H]1NC(=O)[C@H](CC2CC2)N(C)C(=O)C[C@@H](C(=O)N2CCCC2)N(C)C(=O)[C@H](C2CCCC2)N(C)C(=O)C2(CCCC2)NC(=O)[C@@H]2C[C@@H](C(F)(F)F)CN2C(=O)[C@H](CCc2cc(F)c(C(F)(F)F)c(F)c2)NC(=O)CN(C)C(=O)[C@H](Cc2ccc(F)cc2)N2CC/C=C\C[C@@H](C2=O)N(C)C(=O)CN(C)C1=O [PP1509] | 67.9 | A (a compound having 10 or more and less than 20 is denoted as A) | A (a compound having 10 or more and less than 20 is denoted as A)

Compounds with a lower IC50 [3], results first:

Row | IC50 [3] [nM] | Compound | NRAS/KRAS (ratio of KD value for GDP-bound NRAS wild-type protein to KD value for KRAS) [1] | HRAS/KRAS (ratio of KD value for GDP-bound HRAS wild-type protein to KD value for KRAS) [2]
7 | 45.7 | CCO[C@@H]1C[C@H]2C(=O)NC3(CCC3)C(=O)N(C)[C@@H](C(CC)CC)C(=O)N(C)[C@H](C(=O)N(C)C)CC(=O)N(C)[C@@H](CC3CCCC3)C(=O)N[C@@H]([C@@H](C)CC)C(=O)N(C)CC(=O)N(C)[C@H]3C/C=C\CCN(C3=O)[C@@H](Cc3ccc(F)cc3C)C(=O)N(C)CC(=O)N[C@@H](CCc3cc(F)c(C(F)(F)F)c(F)c3)C(=O)N2C1 [PP1516] | A (a compound having 10 or more and less than 20 is denoted as A) | B (a compound having 3 or more and less than 10 is denoted as B)
8 | 34.4 | CCO[C@@H]1C[C@H]2C(=O)NC(C)(C)C(=O)N(C)[C@@H](C3CCCC3)C(=O)N(C)[C@H](C(=O)N(C)C)CC(=O)N(C)[C@@H](CC)C(=O)N[C@@H]([C@@H](C)CC)C(=O)N(C)CC(=O)N(C)[C@H]3C/C=C\CCN(C3=O)[C@@H](Cc3ccc(C(F)(F)F)cc3)C(=O)N(C)CC(=O)N[C@@H](CCc3cc(F)c(C(F)(F)F)c(F)c3)C(=O)N2C1 [PP1280] | A (a compound having 10 or more and less than 20 is denoted as A) | A (a compound having 10 or more and less than 20 is denoted as A)
9 | 28.3 | CCO[C@@H]1C[C@H]2C(=O)NC3(CCC3)C(=O)N(C)[C@@H](C3CCCC3)C(=O)N(C)[C@H](C(=O)N(C)C)CC(=O)N(C)[C@@H](CC3CCCC3)C(=O)N[C@@H]([C@@H](C)CC)C(=O)N(C)CC(=O)N(C)[C@H]3C/C=C\CCN(C3=O)[C@@H](Cc3ccc(C(F)(F)F)cc3)C(=O)N(C)CC(=O)N[C@@H](CCc3ccc(Cl)c(Cl)c3)C(=O)N2C1 [PP1254] | AA (a compound having 20 or more is denoted as AA) | A (a compound having 10 or more and less than 20 is denoted as A)
10 | 20.8 | CCO[C@@H]1C[C@H]2C(=O)NC3(CCC3)C(=O)N(C)[C@@H](C(CC)CC)C(=O)N(C)[C@H](C(=O)N(C)C)CC(=O)N(C)[C@@H](CC3CC3)C(=O)N[C@@H]([C@@H](C)CC)C(=O)N(C)CC(=O)N(C)[C@H]3C/C=C\CCN(C3=O)[C@@H](Cc3ccc(C(F)(F)F)cc3)C(=O)N(C)CC(=O)N[C@@H](CCc3cc(F)c(C(F)(F)F)c(F)c3)C(=O)N2C1 [PP1203] | A (a compound having 10 or more and less than 20 is denoted as A) | A (a compound having 10 or more and less than 20 is denoted as A)
11 | 18.2 | CCO[C@@H]1C[C@H]2C(=O)NC3(CCC3)C(=O)N(C)[C@@H](C3CCCC3)C(=O)N(C)[C@H](C(=O)N(C)C)CC(=O)N(C)[C@@H](CC3CCCC3)C(=O)N[C@@H]([C@@H](C)CC)C(=O)N(C)CC(=O)N(C)[C@H]3C/C=C\CCN(C3=O)[C@@H](CC3CCC(F)(F)CC3)C(=O)N(C)CC(=O)N[C@@H](CCc3cc(F)c(C(F)(F)F)c(F)c3)C(=O)N2C1 [PP1458] | A (a compound having 10 or more and less than 20 is denoted as A) | A (a compound having 10 or more and less than 20 is denoted as A)
12 | 17.8 | CCO[C@@H]1C[C@H]2C(=O)NC3(CCC3)C(=O)N(C)[C@@H](C(CC)CC)C(=O)N(C)[C@H](C(=O)N(C)C)CC(=O)N(C)[C@@H](CC(C)C)C(=O)N[C@@H]([C@@H](C)CC)C(=O)N(C)CC(=O)N(C)[C@H]3C/C=C\CCN(C3=O)[C@@H](Cc3ccc(C(F)(F)F)cc3)C(=O)N(C)CC(=O)N[C@@H](CCc3ccc(Cl)c(Cl)c3)C(=O)N2C1 [PP1217] | AA (a compound having 20 or more is denoted as AA) | A (a compound having 10 or more and less than 20 is denoted as A)
13 | 12.8 | CCO[C@@H]1C[C@H]2C(=O)NC3(CCC3)C(=O)N(C)[C@@H](C3CCCC3)C(=O)N(C)[C@H](C(=O)N3CCOCC3)CC(=O)N(C)[C@@H](CC)C(=O)N[C@@H]([C@@H](C)CC)C(=O)N3CC[C@H]3C(=O)N(C)[C@H]3C[C@@H](C)[C@@H](C)CN(C3=O)[C@@H](Cc3ccc(C(F)(F)F)cc3)C(=O)N(C)CC(=O)N[C@@H](CCc3cc(F)c(C(F)(F)F)c(F)c3)C(=O)N2C1 [PP1351] | A (a compound having 10 or more and less than 20 is denoted as A) | B (a compound having 3 or more and less than 10 is denoted as B)
14 | 7.6 | CCCC[C@H]1C(=O)N[C@@H]([C@@H](C)CC)C(=O)N(C)CC(=O)N(C)[C@H]2C/C=C\CCN(C2=O)[C@@H](Cc2ccc(C(F)(F)F)cc2)C(=O)N(C)CC(=O)N[C@@H](CCc2cc(F)c(C(F)(F)F)c(F)c2)C(=O)N2C[C@H](OCC)C[C@H]2C(=O)NC2(CCC2)C(=O)N(C)[C@@H](C2CCCC2)C(=O)N(C)[C@H](C(=O)N(CC)CC)CC(=O)N1C [PP1576] | AA (a compound having 20 or more is denoted as AA) | A (a compound having 10 or more and less than 20 is denoted as A)
15 | 1.7 | CCO[C@@H]1C[C@H]2C(=O)NC3(CC(C)(C)C3)C(=O)N(C)[C@@H](C3CCCC3)C(=O)N(C)[C@H](C(=O)N(C)C)CC(=O)N(C)[C@@H](CC(C)C)C(=O)N[C@@H]([C@@H](C)CC)C(=O)N(C)CC(=O)N(C)[C@H]3C/C=C\CCN(C3=O)[C@@H](Cc3ccc(C(F)(F)F)cc3)C(=O)N(C)CC(=O)N[C@@H](CCc3ccc(C(F)(F)F)c(OC)c3)C(=O)N2C1 [PP1562] | A (a compound having 10 or more and less than 20 is denoted as A) | A (a compound having 10 or more and less than 20 is denoted as A)
